Assay results: PMC5814837 (Pest Management Science, 2017)

Columns and labels:
[1] = biological target: mitochondrial succinate dehydrogenase (SDH) (Zymoseptoria tritici, UniProt F9X9V6+F9XH52+O42772, N33T/N34T/V106L); assay: biochemical; conditions: IC50
[2] = biological target: mitochondrial succinate dehydrogenase (SDH) (Zymoseptoria tritici, UniProt F9X9V6+F9XH52+O42772, N33T/N34T); assay: biochemical; conditions: IC50

Cn1cc(C(=O)Nc2ccc(F)cc2-c2ccc(Cl)c(Cl)c2)c(C(F)F)n1 [Bixafen, bixafen] was tested, and the IC50 [1] was 44 ± 11 nM and the IC50 [2] was 31 ± 17 nM.
With O=C(NCCc1ncc(C(F)(F)F)cc1Cl)c1ccccc1C(F)(F)F [Fluopyram, fluopyram] the IC50 [1] was 12400 ± 1320 nM and the IC50 [2] was 134 ± 67 nM.
Cc1cc(OC(C)C)ccc1C(=O)C(C)(C)NC(=O)c1sccc1C [Isofetamid, N‐[1,1‐dimethyl‐2‐(4‐isopropoxy‐o‐tolyl)‐2‐oxoethyl]‐3‐methylthiophene‐2‐carboxamide] gave an IC50 [1] of over 32000 nM and an IC50 [2] of 46 ± 9 nM.
